Data set [1] concerns chloroquin (CQ) resistant strain of Plasmodium falciparum (Pf). In words: In vitro efficacy against chloroquin resistant Plasmodium falciparum. The class given is cell-based. The note with it: for IC50: CQ resistant P. falciparum, in vitro, triplicate. The protocol:
Tx-5 and Tx-84 were tested for in vitro efficacy against a chloroquin (CQ) resistant strain of Plasmodium falciparum (Pf). The tests were performed in triplicate at a wide variety of concentrations and evaluated for effect compared with CQ.

In the next data set the test system is Enterococcus faecium. Put plainly: NCCLS MIC/MBC microdilution, Enterococcus (vancomycin sensitive). The class given is cell-based. Conditions: for MBC: read at 48 hr. An excerpt:
(§1) [BBL Mueller Hinton Broth].
For orientation: Broth dilution looks for growth in wells or tubes with falling amounts of substance.

The test system of data set [2] is MRSA (oxacillin/methicillin resistant S. aureus). Put plainly: NCCLS MIC/MBC microdilution, MRSA. Conditions: for MIC, MRSA (methicillin resistant): Table 3, 24 h and 48 h same results.
Experimental: (§2) Standard NCCLS (e.g., National Committee for Clinical Laboratory Standards) methods for determining MIC (e.g., minimum inhibitory concentration) and MBC (e.g., minimum bactericidal concentration) were used. 96 well micro-well plates were placed in a humid chamber and frozen at −70° C. [BBL Mueller Hinton Broth]. Drugs (e.g., antimicrobial compounds of the present invention) were added to a series of wells through 2 fold serial dilutions. 100 μl of a 2×10^−3 M solution of the respective Tx compounds was added to the first well in a series. 100 μl of the inoculum (e.g., microorganism) was added to the well. […] For example, the concentration in well 8 would be less than the concentration of the same drug in well 7. Inoculum (e.g., microorganism) that was added to the wells was prepared from 24 hour growth of an isolate on 5% sheep blood/Columbia agar plates. 5 to 10 representative colonies were then picked from the plates and added to saline and adjusted to 0.5 McFarland turbidity. Next the sample was diluted 1:100 in saline, such that 100 μl of the diluted sample contained approximately 1×10^5 microbes. 100 μl of the diluted sample was added to each well in a series of drug concentrations. Once the cells were added to the wells, the well plates were incubated at 35° C. without CO2 for 48 hrs and at this time the minimum bactericidal concentration was determined.
(§3) The MIC of Tx-118, Tx-147, and Tx-197 for certain Staphylococcus aureus (MRSA), Pseudomonas aeruginosa, Stenotrophomonas maltophilia, and VRE Enterococcus faecalis was determined using standard NCCLS methods. The first well in each series of decreasing drug concentrations contained 1×10^−4 M of a drug. The drug was diluted by serial two fold dilutions through all 12 wells in a series. There was a final DMSO concentration of 2% in the first well and 1% in the second well, etc. Tests with Tx-118 and Tx-197 were performed in triplicate, and tests with Tx-147 were performed in duplicate.
For another data set, the system named is E. coli ATCC 25922. In words: NCCLS MIC/MBC microdilution, E. coli. The format is cell-based. The note with it: plate EC.
Text: as §1

For data set [3], the system named is Mycobacterium tuberculosis. Conditions: Table 3.
The next data set relates to M. avium intracellularie. In words: MIC, M. avium intracellularie. The format is cell-based, Mycobacterium avium intracellulare. The note with it: Table 3.
Data set [4] has as its system VRE (Vancomycin resistant Enterococci). In words: NCCLS MIC/MBC microdilution, VRE. Conditions: for MIC, VRE enterococcus (E. faecalis): 24 h and 48 h same results.
Experimental: as §2, §3
In the next data set the test system is P. aeruginosa. In words: NCCLS MIC/MBC microdilution, P. aeruginosa. Also on record: MIC: key to the marks not given beside the values. Conditions: for MIC, P. aeruginosa: Table 3, P. aeroginosa is L13 from Table 2.
For the next data set, the system named is S. aureus. In words: NCCLS MIC/MBC microdilution, S. aureus patient isolates. The format is cell-based, Staphylococcus aureus. Conditions: for MBC: read at 48 hr.
Text: as §1

Another data set deals with Mycobacterium fortutium. Put plainly: MIC, Mycobacterium fortutium. The format is cell-based. The note with it: for MIC, Mycobacterium fortutium: Table 3.
For data set [5], the system named is Stenotrophomonas maltophilia. Put plainly: NCCLS MIC/MBC microdilution, S. maltophilia. Conditions: for MIC, Stenotrophomonas maltophilia: 24 h and 48 h same results.
Experimental: as §2, §3
For a further data set, the system named is BDF1′ mice. Conditions: 30 mg/kg ip.
For data set [6], the system named is Vancomycin resistant S. aureus ATCC700699 and 700788 (VRSA). Put plainly: NCCLS MIC/MBC microdilution, vancomycin resistant S. aureus. The note with it: for MBC: read at 48 hr. The format is cell-based, Staphylococcus aureus.
Text: as §1

Another data set concerns various microorganisms. Put plainly: Antimicrobial activity tests, various microorganisms. Conditions: for growth in wells (activity): Example 1 microbes.
The mark [7] stands for this setting: plate E348, Enterococcus faecium patient isolate.
Where [8] appears, read: plate E502, Enterococcus faecium ATCC 502806.
The mark [9] stands for this setting: plate E523, Enterococcus facium patient isolate.
Where [10] appears, read: Example 2, first well 1×10^−4 M.
Where [11] appears, read: plate S332, S aureus patient isolate.
[12] abbreviates: Table 3, 24 h and 48 h same results.
The mark [13] stands for this setting: plate 699, VancoR S. aureus ATCC700699.
The mark [14] stands for this setting: plate 788, VancoR S. aureus ATCC 700788.

≈ marks a conversion by molar mass, not a printed value. Where “and” joins values, the source holds several entries; their conditions need not be identical. Equal entries are not always repeated. Entries after “also recorded” stand apart in the source; their conditions may differ.

Experimental for P. aeruginosa: as §2, §3

The compound `CCN(CC)CCCC(C)Nc1ccnc2cc(Cl)ccc12` (centres unmarked) [CQ, chloroquin, reference compound] had an IC50 in data set [1] of 606 nM.

With `CN1CCN(CCCCNc2cc3c4ccccc4c(NCCCCN4CCN(C)CC4)cc3c3ccccc23)CC1.Cl` [Tx-147], the MIC against Enterococcus faecium (setting [7]) was 3 µg/mL; with Enterococcus faecium (setting [8]), 6 µg/mL; against Enterococcus faecium (setting [9]), 6 µg/mL; in [2] (plate A1, MRSA patient isolate) it was 24 µg/mL; in data set [2] (plate B2, MRSA patient isolate), 48 µg/mL; in [2] (plate E5, MRSA patient isolate) it was 24 µg/mL. Further, the MIC in [2] (plate F6, MRSA patient isolate) was 24 µg/mL; in [2] (plate G7, MRSA patient isolate) it was 24 µg/mL; in data set [2] (plate H9, MRSA patient isolate) it was 48 µg/mL; in [2] (plate K12, MRSA patient isolate), 48 µg/mL; with E. coli ATCC 25922, “+++”; in data set [4] (plate D4, VRE patient isolate) it was 12 µg/mL. The MIC entry is “+++” in the data set on P. aeruginosa (plate 37, P. aeruginosa sensitive isolate); “+++” against P. aeruginosa (plate ATCC, P. aeruginosa ATCC 27853); “+++” in the data set on P. aeruginosa (plate L13, P. aeruginosaR (multi-resistant)); 12/12 ug/ml in the data set with S. aureus (setting [11]); 12/12 ug/ml in the data set with S. aureus (plate S520, S aureus patient isolate penicillin resistant); 96 µg/mL in data set [5] (plate C3, S. maltophilia patient isolate). For the same compound, the MIC in data set [5] (plate I10, S. maltophilia patient isolate) came to 784 µg/mL; in data set [5] (plate J11, S. maltophilia patient isolate), 784 µg/mL; in [6] (setting [13]) it was 6 µg/mL; in [6] (setting [14]), 24 µg/mL. For the same compound, the MBC was 6 µg/mL with Enterococcus faecium (setting [7]); 12 µg/mL with Enterococcus faecium (setting [8]); 12 µg/mL against Enterococcus faecium (setting [9]); 12/12 ug/ml in the data set with S. aureus (setting [11]); 12/12 ug/ml with S. aureus (plate S520, S aureus patient isolate); 23 µg/mL in data set [6] (setting [13]). The MBC in [6] (setting [14]) amounted to 49 µg/mL. Further, in [2] (Example 2, first well 1×10^−4 M, two fold dilutions), the “MIC for Staphylococcus aureus (MRSA)” value came to 3.9 ng/mL. In addition, the “concentration that was bactericidal, Staphylococcus aureus (MRSA)” value in [2] (Example 2, wells 1 and 2, hydrochloride) is 0.0078 µg/mL and 0.0039 µg/mL. Also, in data set [2], the “MIC, MRSA (methicillin resistant)” value lay in the range of 24 to 49 µg/mL. For the same compound, in [2] (in words, Example 1), the “bactericidal activity against Staphylococcus aureus (MRSA)” value is “bactericidal activity”. Also, the “MIC, Mycobacterium tuberculosis” value in data set [3] was found to be 3 µg/mL. Also, in the data set on M. avium intracellularie, the “MIC, M. avium intracellularie” value fell in the range of 12 to 24 µg/mL. For the same compound, the “MIC for VRE” value in data set [4] (setting [10]) was 1.9 ng/mL. Further, in [4] (Table 3), the “MIC, VRE enterococcus (E. faecalis)” value stood at 12 µg/mL. The “MIC, VRE enterococcus (vancomycin, Penicillin & aminoglycoside rest.)” value in data set [4] (Table 3, vancomycin, Penicillin & aminoglycoside resistant) was 19 µg/mL. In addition, the “bactericidal activity for VRE” value in [4] (in words, Example 1) is on record as “some bactericidal activity”. In addition, in the data set with P. aeruginosa, the “MIC, P. aeruginosa” value was “No activity”. The “MIC for Mycobacterium fortutium” value with Mycobacterium fortutium (Example 2) is 3.9 ng/mL. Further, the “MIC, Mycobacterium fortutium” value with Mycobacterium fortutium was 39 µg/mL. Besides, in [5] (setting [10]), the “MIC for Stenotrophomonas maltophilia” value worked out at 7.8 ng/mL. Moreover, the “MIC, Stenotrophomonas maltophilia” value in data set [5] (Table 3) lay within 98 to 785 µg/mL. For the same compound, the “MIC, Stenotrophomonas maltophilia (resist. various drugs)” value in data set [5] (Table 3, strain resist. various drugs) turned out to be 78 µg/mL. The “animal studies (ip), mortality” value in the data set on BDF1′ mice was 30 mg/kg (10-12% mort). In addition, the “MIC, VRSA (ATCC 700699)” value in data set [6] (setting [12]) came out at 6 µg/mL. Besides, in data set [6] (setting [12]), the “MIC, VRSA (ATCC 700788)” value came out at 24 µg/mL.

With `Cl.c1ccc2c(c1)c(NCCCCN1CCCCC1)cc1c3ccccc3c(NCCCCN3CCCCC3)cc21` [Tx-225], the antimicrobial activity entry in the data set with various microorganisms (in words) was “activity similar to Tx-84”.

Regarding `O=C1[C@@H](O)[C@H](c2ccccc2)N1c1cc2c3ccccc3ccc2c2ccccc12` (relative stereo) [Tx-197, Trans-1-N-(6′-chrysenyl)-3-hydroxy-4-phenyl-2-azetidinone], the “MIC, MRSA (methicillin resistant)” value in [2] is “No activity”. For the same compound, the “MIC, VRE enterococcus (E. faecalis)” value in data set [4] (Table 3) is recorded as “No activity”. Moreover, the “MIC, P. aeruginosa” value against P. aeruginosa was “No activity”. Moreover, in the data set on Mycobacterium fortutium, the “MIC, Mycobacterium fortutium” value is given as “No activity”. Moreover, the “MIC, Stenotrophomonas maltophilia” value in [5] (Table 3) was “No activity”.

Take `CN1CCN(C(=O)CCC(=O)Nc2ccc3c(c2)c(Br)cc2c4ccccc4ccc32)CC1` [Tx-10, N-(12′-bromo, 2′-chrysenyl)-4-(4′N methyl-piperazinyl)-butane-1,4-dicarboxiamide]: the “growth in wells (activity)” value in the data set on various microorganisms is on record as “+3 growth (e.g., no activity)”.

With `CN1CCN(C(=O)CCC(=O)Nc2cc3c4ccccc4c(Br)cc3c3ccccc23)CC1` [Tx-9, N-(12′-bromo, 6′-chrysenyl)-4-(4′N methyl-piperazinyl)-butane-1,4-dicarboxiamide], in the data set on various microorganisms, the “growth in wells (activity)” value is reported as “+3 growth (e.g., no activity)”.

As for `CC(=O)c1cc2c3ccccc3ccc2c2ccc(NC(=O)CCC(=O)N3CCN(C)CC3)cc12` [Tx-118, N-(12′-acetyl, 2′-chrysenyl)-4-(4′N methyl-piperazinyl)-butane-1,4-dicarboxiamide], the “MIC, MRSA (methicillin resistant)” value in [2] is “No activity”. In [4] (Table 3), the “MIC, VRE enterococcus (E. faecalis)” value was “No activity”. For the same compound, the “MIC, P. aeruginosa” value in the data set with P. aeruginosa is listed as “No activity”. Moreover, the “MIC, Mycobacterium fortutium” value in the data set on Mycobacterium fortutium is on record as “No activity”. Also, the “MIC, Stenotrophomonas maltophilia” value in data set [5] (Table 3) is recorded as “No activity”.

In the case of `O=C(CCC(=O)N1CCCCC1)Nc1ccc2c(c1)c(Br)cc1c3ccccc3ccc21` [Tx-12, N-(12′-bromo, 2′-chrysenyl)-4-(1′-piperidinyl)-butane-1,4-dicarboxiamide], the “growth in wells (activity)” value in the data set on various microorganisms was “+3 growth (e.g., no activity)”.

For the compound `c1ccc2c(c1)c(NCCCCN1CCCCC1)cc1c3ccccc3c(NCCCCN3CCCCC3)cc21` [Tx-84], in data set [1], the IC50 is 91 nM. Besides, the “inhibitory effect against Pf” value in [1] (in words) was “significant inhibitory effect; also recorded: greater than that of CQ”. In data set [2], the “MIC, MRSA (methicillin resistant)” value is 16 µg/mL (≈ 29.8 µM). For the same compound, the “MIC, VRE enterococcus (E. faecalis)” value in data set [4] (Table 3) was 4 to 33 µg/mL. Also, the “MIC, P. aeruginosa” value against P. aeruginosa is given as “No activity”.

On to `O=C(CCC(=O)N1CCCCC1)Nc1cc2c3ccccc3c(Br)cc2c2ccccc12` [Tx-11, N-(12′-bromo, 6-chrysenyl)-4-(1′-piperidinyl)-butane-1,4-dicarboxiamide], for which the “growth in wells (activity)” value in the data set with various microorganisms is given as “+3 growth (e.g., no activity)”.

For the compound `CN1CCN(C(=O)CCC(=O)Nc2cc3c4ccccc4ccc3c3ccccc23)CC1` [Tx-1, N-(6′-chrysenyl)-4-(4′N methyl-piperazinyl)-butane-1,4-dicarboxiamide], the “MIC, Mycobacterium tuberculosis” value in [3] worked out at 2.9 µg/mL (≈ 6.81 µM). The “MIC, M. avium intracellularie” value with M. avium intracellularie was determined as 46 µg/mL (≈ 108 µM).

Turning to `O=C(CCC(=O)N1CCCCC1)Nc1ccc2c(ccc3c4ccccc4ccc23)c1` [Tx-4, N-(2′-chrysenyl)-4-(1′-piperidinyl)-butane-1,4-dicarboxiamide], in data set [3], the “MIC, Mycobacterium tuberculosis” value was “.1 µg/mL”. Further, the “MIC, M. avium intracellularie” value in the data set with M. avium intracellularie was “.82 µg/mL”.

Take `O=C(CCC(=O)N1CCCCC1)Nc1cc2c3ccccc3ccc2c2ccccc12` [Tx-3, N-(6′-chrysenyl)-4-(1′-piperidinyl)-butane-1-4-dicarboxiamide]: the “MIC, Mycobacterium tuberculosis” value in data set [3] is “.125 µg/mL”. Further, the “MIC, M. avium intracellularie” value in the data set on M. avium intracellularie is “.98 µg/mL”.

With `CN1CCN(C(=O)CCC(=O)Nc2ccc3c(ccc4c5ccccc5ccc34)c2)CC1` [Tx-2, N-(2′-chrysenyl)-4-(4′N-methyl-piperazinyl)-butane-1,4-dicarboxiamide], the “MIC, Mycobacterium tuberculosis” value in data set [3] turned out to be 1 µg/mL (≈ 2.35 µM). In addition, the “MIC, M. avium intracellularie” value against M. avium intracellularie is 15.6 µg/mL (≈ 36.7 µM).

As usually defined, the IC50 is the concentration that inhibits the measured activity by half. What is called MIC is the least concentration at which growth counts as inhibited. Broadly, the MBC is the lowest tested concentration that kills the bacteria rather than only halting them.

The values are drawn from US20050107430A1, “Antimicrobial and antiviral compounds” (priority 2003, published 2005).
